{"source": "patent US11958868B2", "about": "“Methods of using metal complexes to promote wound healing” (University of Macau, priority 2022, dated 2024)", "key": {"[1]": {"test_system": "full-thickness skin wounds in WT/NC mice", "experiment": "Skin wound model in normal (WT/NC) mice", "format": "in vivo", "from_the_text": "(§1) The mice were maintained for 3 days. […] All experiments complied with all relevant ethical regulations.\nMice were anesthetized by inhalation of 3% isoflurane."}, "[2]": {"molecular_target": "T1, VHL-HIF-1α interaction (Homo sapiens, UniProt P40337)", "T1 construct": "endogenous in cells; host or cells: HEK293", "experiment": "Co-immunoprecipitation of hydroxy-HIF-1α with VHL in HEK293 cells", "format": "cell-based", "settings": "HEK293 cells, 0.3, 1, 3, 6 and 9 μM for 2 h", "experimental": "HEK293 cells were treated with vehicle DMSO (1% for 2 h), 1a (0.3, 1, 3, 6 and 9 μM for 2 h), VH298 (100 μM for 2 h), MG132 (20 μM for 3 h), or FG-4592 (100 μM for 2 h) before lysis. Cell lysates were collected and incubated with VHL antibody overnight at 4° C. The proteins were immunoprecipitated using agarose beads. The levels of hydroxy-HIF-1α co-precipitated with VHL were detected using a hydroxy-HIF-1α antibody, and then visualized using ECL Western Blotting Detection Reagent (GE Healthcare). (B) Cellular thermal shift assays to monitor cellular target engagement of VHL and HIF-1α. HEK293 cell lysates were treated with 1a (3 μM) at room temperature for 30 min and then heated at different temperature ranging from 48° C. to 68° C. for 5 min. The protein samples were collected and detected by Western blotting using either VHL or PHD2 antibodies. (C) Fluorescence-based protein thermal shift assay of VBC in the presence or absence of VH298 (100 μM) and complex 1a (100 μM). (D) ITC titration of complex 1a (300 μM) into recombinant VHL protein (30 μM). ITC experiments were carried in a MicroCal PEAQ-ITC Isothermal Titration Calorimeter (Malvern Panalytical). […] Data are expressed as means±SD (n=3 independent experiments for figures a and b, samples for figures c and e), P values were calculated using a two-sided t-test. *P<0.05, **P<0.01 vs. DMSO group. […]"}, "[3]": {"experiment": "Stability in solution (1H NMR, UV/Vis)", "format": "physicochemical", "settings": "298 K", "from_the_text": "Based on the structure of complex 1, a focused library of 14 cyclometalated Rh(III) and Ir(III) complexes containing different CAN or NAN donor ligands were designed and synthesized (1a-1n) (FIG. 1c). This library was enriched in the brpy CAN and dmeophen N^N ligands that were identified in the first round of screening to be favorable substructures for potency."}, "[4]": {"molecular_target": "T2, human recombinant VHL:ElonginB:ElonginC (VBC) complex (Homo sapiens, UniProt P40337)", "T2 construct": "made in house", "experiment": "Competitive fluorescence polarization binding assay"}, "[5]": {"molecular_target": "T2, human recombinant VHL:ElonginB:ElonginC (VBC) complex", "experiment": "Isothermal titration calorimetry (ITC)", "format": "binding", "experimental": "HEK293 cells were treated with vehicle DMSO (1% for 2 h), 1a (0.3, 1, 3, 6 and 9 μM for 2 h), VH298 (100 μM for 2 h), MG132 (20 μM for 3 h), or FG-4592 (100 μM for 2 h) before lysis. Cell lysates were collected and incubated with VHL antibody overnight at 4° C. The proteins were immunoprecipitated using agarose beads. The levels of hydroxy-HIF-1α co-precipitated with VHL were detected using a hydroxy-HIF-1α antibody, and then visualized using ECL Western Blotting Detection Reagent (GE Healthcare). (B) Cellular thermal shift assays to monitor cellular target engagement of VHL and HIF-1α. HEK293 cell lysates were treated with 1a (3 μM) at room temperature for 30 min and then heated at different temperature ranging from 48° C. to 68° C. for 5 min. The protein samples were collected and detected by Western blotting using either VHL or PHD2 antibodies. (C) Fluorescence-based protein thermal shift assay of VBC in the presence or absence of VH298 (100 μM) and complex 1a (100 μM). (D) ITC titration of complex 1a (300 μM) into recombinant VHL protein (30 μM). ITC experiments were carried in a MicroCal PEAQ-ITC Isothermal Titration Calorimeter (Malvern Panalytical). […] (F) Biolayer interferometry (BLI) kinetic analysis of the interaction between complex 1a and VBC. VBC was surface-immobilized to Ni-NTA biosensors. […] Data are expressed as means±SD (n=3 independent experiments for figures a and b, samples for figures c and e), P values were calculated using a two-sided t-test. *P<0.05, **P<0.01 vs. DMSO group.\nAfter incubating HEK293 cell lysates with complex 1a followed by heating to set temperatures, VHL and PHD2 levels in the soluble fraction were quantitated by Western blotting."}, "[6]": {"experiment": "Body weight, blood glucose and toxicity in treated mice", "format": "in vivo", "from_the_text": "as §1"}, "[7]": {"test_system": "HIF-2a", "experiment": "Effect on HIF-2a level and activity", "format": "cell-based"}, "[8]": {"molecular_target": "T2, human recombinant VHL:ElonginB:ElonginC (VBC) complex", "experiment": "Circular dichroism of VBC complex", "format": "binding", "settings": "3 μM in 1% DMSO"}, "[9]": {"test_system": "HIF-1α activation of the HRE-driven reporter", "experiment": "Dual luciferase reporter assay (HRE-driven luciferase activity)", "format": "cell-based, Human", "settings": "HEK293 cells, 8 h", "experimental": "A library of cyclometalated Ir(III)/Rh(III) metal complexes 1-14 (as racemates) with diverse structures were selected for initial screening, in order to identify favorable substructures for the design of the next round of complexes (FIG. 1a). In cells, HIF-1α moves into the nucleus and binds to the hypoxia-response element (HRE) in the promoters of transactivated genes. In this study, the dual luciferase reporter assay (DLR) was performed to monitor the variations of HRE-driven luciferase activity induced by the complexes (FIG. 1f). Human embryonic kidney HEK293 cells were treated with complexes (10 μM) for 8 h, and the HRE-driven luciferase activity of the cell lysates was determined. Complexes that inhibit the interaction between VHL and HIF-1α would be expected to increase the level of HRE-driven luciferase activity in the cell lysates.\nHEK293 cells were seeded in six well plates 24 h before transfection. HRE-luciferase plasmid (4 μg) and pRL-TK plasmid (4 μg) and TurboFect reagent (6 μL) were mixed together in serum-free DMEM medium and the resulting solution was incubated for 20 min at room temperature. The mixture was the added dropwise to the HEK293 cells in the wells. The cells were incubated for 32 h at 37° C. in a CO2 incubator before use.\nThe inhibition of HIF-1α activity was assayed by a reporter assay using a dual luciferase reporter assay system (Promega, Madison, WI, USA). Transiently transfected cells were treated with complexes or P1 for 8 h before measurement. Luciferase activity was integrated over a 10 second period and measured using a spectrophotometer (Spectra-max M5, Molecular Devices, USA). The results were standardization with the activity of Renilla luciferase. All data are expressed as means±SD."}, "[10]": {"molecular_target": "VHL (Homo sapiens, UniProt P40337)", "experiment": "Binding affinity to VHL compared with VH298", "settings": "complex 1a vs VH298"}}}
{"smiles": "COc1cc[n+]2c3c1ccc1c(OC)cc[n+](c13)[Ir-3]213([c]2ccccc2-c2cccc[n+]21)[c]1ccccc1-c1cccc[n+]13.F[P-](F)(F)(F)(F)F", "note": "[1a]", "values": [{"measurement": "Rate of wound closure, NC mice, 4 days", "setting": "[1]; NC, 1.25 mg/kg i.p., 4 days", "result": "~65", "unit": "%"}, {"measurement": "Rate of wound closure, WT mice, 4 days", "setting": "[1]; WT, 0.25 mg/mL topical, 4 days", "result": "about 64%"}, {"measurement": "Wound closure, WT/NC mice, 8 days", "setting": "[1]; WT/NC, 8 days", "result": "almost complete wound closure"}, {"measurement": "Amount of HIF-1α-OH co-precipitating with VHL", "setting": "[2]", "result": "reduced the amount of HIF-1α-OH co-precipitating with VHL in a dose-dependent manner"}, {"measurement": "Stability in [d6]DMSO/D2O (9:1) solution", "setting": "[3]; 1H NMR spectroscopy", "result": "remarkable stability in a [d6]DMSO/D2O (9:1) solution for at least seven days"}, {"measurement": "Stability in acetonitrile/H2O (9:1) solution", "setting": "[3]; UV/Vis spectroscopy", "result": "for at least seven days"}, {"measurement": "IC50", "setting": "[4]; 125 nM fluorescent peptide and 450 nM VBC, four-parameter logistic equation", "result": 3.79, "unit": "µM"}, {"measurement": "Kd", "setting": "[4]; displacement of FAM-DEALAHyp-YIPD from VBC", "result": 2.06, "unit": "µM"}, {"measurement": "ΔG (ITC)", "setting": "[5]", "result": -8.14, "unit": "kcal/mol"}, {"measurement": "ΔH (ITC)", "setting": "[5]", "result": -7.85, "unit": "kcal/mol"}, {"measurement": "−TΔS (ITC)", "setting": "[5]", "result": -0.29, "unit": "kcal/mol"}, {"measurement": "Kd", "setting": "[5]; 300 μM complex titrated into 30 μM VBC, 25° C.", "result": "1.08 ± 0.2", "unit": "µM"}, {"measurement": "Blood glucose levels or body weight", "setting": "[6]; HFD/STZ and STZ models, diabetic and NC mice, 1.25 mg/kg i.p.", "result": "neither diabetic nor normal control mice (NC) showed obvious changes in blood glucose levels or body weight"}, {"measurement": "Body weight after local application", "setting": "[6]; WT and db/db mice, 0.25 mg/mL topical, 8 days", "result": "did not affect body weight"}, {"measurement": "Toxicity in animal models of diabetes", "setting": "[6]; db/db, HFD/STZ and STZ", "result": "without significant toxicity"}, {"measurement": "Level and activity of HIF-2a", "setting": "[7]", "result": "no effect on the level and activity of HIF-2a"}, {"measurement": "Circular dichroism signal of VBC complex", "setting": "[8]", "result": "distinct shift of the signal"}, {"measurement": "HRE-driven luciferase activity compared to positive control P1 (and parent complex 1)", "setting": "[9]", "result": "about twice as potent as both the parent complex 1 as well as the positive control compound P1"}, {"measurement": "HRE-driven luciferase activity, second round of screening", "setting": "[9]; complexes 1a-1n, ranking and comparison in words", "result": "highest activation of HRE-drive luciferase activity"}, {"measurement": "Dose-response of HRE-driven luciferase activity", "setting": "[9]; indicated concentrations", "result": "dose-dependent activation of HRE-driven luciferase activity"}, {"measurement": "Binding affinity, lower than that of VH298", "setting": "[10]", "result": "around 100 fold"}]}
